Broadly, the MIC is the least concentration at which growth counts as inhibited.

In brackets after ≈: the same amount, converted by molar mass. Activity calls are given as the source filed them. The rule behind the calls is not given here.

Assay [1] deals with Candida albicans. Briefly: Antifungal activity against Candida albicans ATCC 10231 assessed as microbial growth inhibition at 50 to 300 ug/mL after 48 hrs broth microdilution method. The class given is functional, organism-based. For orientation: Broth dilution looks for growth in wells or tubes with falling amounts of substance.
The subject of assay [2] is Cryptococcus neoformans. Briefly: Antifungal activity against Cryptococcus neoformans ATCC 32264 assessed as microbial growth inhibition at 50 to 300 ug/mL after 48 hrs broth microdilution method. The class given is functional, organism-based.
Assay [3] has as its system Candida albicans. In words: Antifungal activity against Candida albicans ATCC 10231 by bioautography TLC plate assay based MTT method. The class given is functional, organism-based.
Assay [4] deals with Candida albicans. In words: Antifungal activity against Candida albicans ATCC 10231 assessed as microbial growth inhibition after 48 hrs broth microdilution method. The class given is functional, organism-based.
Assay [5] relates to Cryptococcus neoformans. In words: Antifungal activity against Cryptococcus neoformans ATCC 32264 by bioautography TLC plate assay based MTT method. The class given is functional, organism-based. On the technique in general: Tetrazolium assays rely on reduction of a dye to a coloured formazan, in cell work by metabolically active cells.
In assay [6] the test system is Cryptococcus neoformans. In words: Antifungal activity against Cryptococcus neoformans ATCC 32264 assessed as microbial growth inhibition after 48 hrs broth microdilution method. The class given is functional.
For assay [7], the system named is Cryptococcus neoformans. Briefly: Antifungal activity against Cryptococcus neoformans ATCC 32264 assessed as microbial growth inhibition at => 125 ug/mL after 48 hrs broth microdilution method. The class given is functional.
The subject of assay [8] is Candida albicans. Briefly: Antifungal activity against Candida albicans ATCC 10231 assessed as microbial growth inhibition at => 125 ug/mL after 48 hrs broth microdilution method. The class given is functional.
In assay [9] the test system is Cryptococcus neoformans. Briefly: Antifungal activity against Cryptococcus neoformans ATCC 32264 assessed as microbial growth inhibition at 250 ug/mL after 48 hrs broth microdilution method. The class given is functional, organism-based.
The test system of assay [10] is Candida albicans. Briefly: Antifungal activity against Candida albicans ATCC 10231 assessed as microbial growth inhibition at 250 ug/mL after 48 hrs broth microdilution method. The class given is functional, organism-based.
Assay [11] concerns Candida albicans. Briefly: Antifungal activity against Candida albicans ATCC 10231 assessed as microbial growth inhibition at 15.6 ug/mL after 48 hrs broth microdilution method. The note with it: ATCC 10231, 48 h, read-out: GI. The class given is functional.
Assay [12] deals with Cryptococcus neoformans. In words: Antifungal activity against Cryptococcus neoformans ATCC 32264 assessed as microbial growth inhibition at 15.6 ug/mL after 48 hrs broth microdilution method. The class given is functional. The note with it: ATCC 32264, 48 h, read-out: GI.
The subject of assay [13] is Cryptococcus neoformans. In words: Antifungal activity against Cryptococcus neoformans ATCC 32264 assessed as microbial growth inhibition at 62.5 ug/mL after 48 hrs broth microdilution method. The class given is functional. The note with it: ATCC 32264, 48 h, read-out: GI.
For assay [14], the system named is Cryptococcus neoformans. In words: Antifungal activity against Cryptococcus neoformans ATCC 32264 assessed as microbial growth inhibition at 31.25 ug/mL after 48 hrs broth microdilution method. The class given is functional. The note with it: ATCC 32264, 48 h, read-out: GI.
Assay [15] deals with Candida albicans. In words: Antifungal activity against Candida albicans ATCC 10231 assessed as microbial growth inhibition at 62.5 ug/mL after 48 hrs broth microdilution method. The class given is functional. The note with it: ATCC 10231, 48 h, read-out: GI.
The test system of assay [16] is Candida albicans. In words: Antifungal activity against Candida albicans ATCC 10231 assessed as microbial growth inhibition at 125 ug/mL after 48 hrs broth microdilution method. The class given is functional. The note with it: ATCC 10231, 48 h, read-out: GI.

On to `C=C1[C@H]2C[C@H]2[C@]2(C)C[C@@H]3OC(=O)C(CO)=C3C[C@@H]12`, for which the “growth inhibition (GI)” value in assay [1] and in [2] was “inactive” each time.
On to `C=C1[C@@H]2[C@H]3OC(=O)[C@@H](C)[C@@H]3CCC(=C)[C@@H]2C[C@@H]1O`, for which the “growth inhibition (GI)” value in assay [3], in [4], in [5] and in assay [6] was “Active” each time.
With `C=C1[C@H]2C[C@H]2[C@]2(C)C=C3OC(=O)C(CO)=C3C[C@@H]12`, the “growth inhibition (GI)” value in [3] and in assay [5] was “Active” each time. For the same molecule, the “growth inhibition (GI)” value in [7] and in assay [8] was 50% throughout.
Consider `C=C1[C@@H]2[C@H]3OC(=O)C(=C)[C@@H]3CCC(=C)[C@@H]2C[C@@H]1O` [ZALUZANIN C], for which the “growth inhibition (GI)” value in assay [3] and in [4] was “Active” in each case. Also, the MIC in assay [6] (ATCC 32264, 48 h) stood at 125 µg/mL (≈ 507 µM).
In the case of `C=C1[C@H]2C[C@H]2[C@]2(C)[C@@H]3O[C@@]34OC(=O)C(COC(C)=O)=C4C[C@@H]12`, the “growth inhibition (GI)” value in assay [3] and in assay [5] was “Active” throughout. Besides, the “growth inhibition (GI)” value in assay [9] and in assay [10] was “inactive” each time.
Regarding `C=C1[C@H]2C[C@H]2[C@]2(C)C=C3OC(=O)C(COC(C)=O)=C3C[C@@H]12`, the “growth inhibition (GI)” value in assay [3] and in [5] was “Active” throughout. Moreover, the inhibition of growth at 15.6 µg/mL in [11] and in assay [12] was 50% in each case. Besides, the inhibition of growth at 62.5 µg/mL in [13] was determined as 100%; in assay [15], 80%. The inhibition of growth at 31.25 µg/mL in [14] turned out to be 80%. In addition, the inhibition of growth at 125 µg/mL in assay [16] came out at 100%.

These data come from ChEMBL document CHEMBL3352037, “Antifungal terpenoids from Hyalis argentea var. latisquama” (2014).
